{
  "source": "patent US20140227173A1",
  "about": "“CANCER TREATMENT WITH GAMMA-SECRETASE INHIBITORS” (The Johns Hopkins University, priority 2006, published 2014)",
  "key": {"E3LZ10.7": {"tested_on": "E3LZ10.7", "experiment": "Colony formation in soft agar after pre-treatment", "format": "cell-based, human", "experimental": "(Top) Experimental scheme illustrating pre-treatment of pancreatic cancer cell lines with GSI-18, prior to plating for soft agar assays and subcutaneous injection in athymic mice. Treatment for 24 hours with GSI-18 or vehicle is followed by recovery in full serum for a further 24 hours minus the drug. Equal numbers of viable cells from the control and treated groups are then plated for colony assays in soft agar, or injected in nude mice. Of note, during the in vitro or in vivo assays, no further drug is administered. […] The dosage required for significant inhibition of clonogenicity varies between 2 μM (Capan-1) to 5 μM (E3LZ10.7). Bar graphs represent colony counts at two weeks, with mean and standard deviations calculated from triplicate experiments. (Left) Pre-treatment with GSI-18 inhibits tumorigenicity of Panc-1 pancreatic cancer cell line in athymic mice. […] Error bars represent standard deviation of five mice per arm."}, "[1]": {"tested_on": "GBM neurosphere line HSR-GBM1a", "experiment": "Growth of GBM neurospheres in vitro (total cell number)", "format": "cell-based", "experimental": "(A, B) CD133 is expressed in GBM neurosphere line HSR-GBM1a. (C) The total cell number was decreased upon GSI-18 treatment for 48 h in this line and in the subclones of the line. […] (E) Protein expression of Hes1, a Notch pathway target gene, was reduced upon GSI-18 treatment in GBM neurosphere cells.\nIt has been shown that the Notch signaling pathway regulates normal stem cells in the Central Neural System (CNS), and that GBMs contain cancer stem cells (CSCs) with higher Notch activity (Cancer Research, 64:7011-21, 2004; Cancer Cell, 9:391-403, 2006). However, it has not been known if Notch pathway blockade could target CSCs in GBM. […] In the present study, we used GBM neurospheres to examine the effects of Notch pathway blockade in GBM. […] Furthermore, overexpression of an active form of Notch2 (NICD2) increases tumor growth in vitro."}, "DAOY [2]": {"tested_on": "DAOY", "experiment": "Number of live cells (Guava Viacount)", "format": "cell-based", "conditions": "2 μM", "experimental": "(§1) The fact that cultures grew 2-fold or more during the same time period that side population was essentially ablated by Notch pathway blockade provides additional support for the notion that medulloblatoma CSC are especially vulnerable to Notch signaling inhibition.\n(§2) The DAOY, PFSK, D283 and D425 Med cell lines were obtained from the American Type Culture Collection. The low-passage MB line MB2 was derived from a tumor resected at Johns Hopkins Hospital. For treatment studies, cell were plated and allowed to grow overnight in MEM (Invitrogen, Carlsbad, Calif.) containing 10% FBS, then media was replaced the next morning with low serum (0.5% FBS) MEM containing GSI dissolved in DMSO. RNA and protein extractions, and all cell-based assays, were performed 48 hours after drug application unless otherwise noted. All experiments with error bars were performed in triplicate and shown as mean values with standard error unless otherwise noted. Cell mass was measured using CellTITER assays according to the manufacturer's instructions (Promega, Madison, Wis.). Cell number and viability were assessed using the Guava PCA and Viacount reagent according to instructions (Guava Technologies, Heyward, Calif.). Soft agar assays were performed as previously described (15) and scored either manually after 4 weeks or using as automated reader after 6 weeks. The constitutively active Akt stable cell line was made by transfecting DAOY cells with myristolated Akt (pCB6-IMy-Akt-HA) or control (pCB6+) plasmids (kind gifts from Susan J. Baker) and selecting and maintaining clones in 0.8 mg/ml G418. Soft agar assays were performed as previously described, with colonies counted using an automated reader (15)."}, "D283Med [3]": {"tested_on": "D283Med", "experiment": "Number of live cells (Guava Viacount)", "format": "cell-based", "conditions": "2 μM", "experimental": "as §1, §2"}, "D425Med [4]": {"tested_on": "D425Med", "experiment": "Number of live cells (Guava Viacount)", "format": "cell-based", "conditions": "2 μM", "experimental": "as §1, §2"}, "PFSK": {"tested_on": "PFSK", "experiment": "Number of live cells (Guava Viacount)", "format": "cell-based", "conditions": "2 μM", "experimental": "as §1, §2"}, "MB2": {"tested_on": "MB2", "experiment": "Nestin immunocytochemistry, nestin-positive fraction", "format": "cell-based", "conditions": "2 μM, 48 hours"}, "DAOY [5]": {"tested_on": "DAOY", "experiment": "Xenograft initiation by pretreated cells injected subcutaneously in athymic (nude) mice", "format": "in vivo", "experimental": "A clonogenic assay was used to determine whether cells capable of initiating anchorage-independent colonies were depleted by GSI-18. In vehicle-treated DAOY cultures, 2.9% of cells formed large colonies when seeded in soft agar (FIG. 7H). This number dropped to 0.26% when an equal number of viable cells were counted and seeded after 48 hours of treatment with GSI-18, and increased to 7.2% in the presence of constitutive Notch2 activation. Initiation of tumor xenografts was assayed next, a strategy used in several previous studies to examine the presence or absence of cancer stem cells (6-8). DAOY and DAOY:NICD2 cultures were treated with either 2 μM GSI-18 or vehicle alone, and the viable cells remaining after 48 hours counted using Trypan blue. 500,000 viable cells from each group were then injected subcutaneously in athymic (nude) mice. Large xenografts formed at the sites of all 12 control injections. […] To rule out the possibility that cells were alive but moribund following gamma-secretase inhibition, the experiment was repeated with cells counted after a recovery period."}, "DAOY [6]": {"tested_on": "DAOY", "experiment": "Side population (Hoechst 33342 excretion) flow cytometry", "format": "cell-based", "conditions": "DAOY; 2 μM; untreated SP 1.9%", "experimental": "(§3) The ability to excrete Hoechst dye, which defines SP (also known as “side population”) in flow cytometric analyses, is another marker of tumor-initiating CSC in the blood and brain (7, 8, 20). SP was therefore analyzed to obtain a second measure of the effects of Notch on CSC.\n(§4) Flow cytometric analysis of S-phase fraction and cell cycle kinetics was performed using a FACSCalibur (Becton Dickinson, San Jose, Calif.) with CELL Quest, version 3.3 software (15). CD133 studies were performed using the same instrument, with antibodies from Miltenyi (Miltenyi Biotec, Auburn, Calif.) according to the manufacturer's instructions. […] Prior to analysis, cells were washed and resuspended in 2 μg/ml PI (Sigma, St. Louis, Mo.). […] To ensure proper identification of SP cells, cells were incubated as above with the addition of 50 μM verapamil (Sigma)."}, "D283Med [7]": {"tested_on": "D283Med", "experiment": "Side population (Hoechst 33342 excretion) flow cytometry", "format": "cell-based", "conditions": "D283Med; 2 μM GSI-18 or verapamil", "experimental": "as §3, §4"}, "DAOY:NICD2": {"tested_on": "DAOY:NICD2", "experiment": "Side population (Hoechst 33342 excretion) flow cytometry", "format": "cell-based", "conditions": "2 μM GSI-18 or verapamil", "experimental": "as §3, §4"}, "D425Med [8]": {"tested_on": "D425Med", "experiment": "Side population (Hoechst 33342 excretion) flow cytometry", "format": "cell-based", "conditions": "D425Med; 2 μM GSI-18 or verapamil", "experimental": "as §3, §4"}},
  "data": [
    {"smiles": "O=S(=O)(NC1C2CCC1Cc1ccccc1C2)c1cccs1", "note": "(stereo not drawn) [GSI-18, [11-endo]-N-(5,6,7,8,9,10-hexahydro-6,9-methanobenzo[α][8]annulen-11-yl)-thiophene-2-sulfonamide]", "values": [
      {"measurement": "colony formation following pre-treatment", "setting": "E3LZ10.7; 24 hours pre-treatment, 24 hours recovery minus drug, colony counts at two weeks", "result": "Significant inhibition of colony formation"},
      {"measurement": "dosage required for significant inhibition of clonogenicity", "setting": "E3LZ10.7; pre-treatment", "result": 5, "unit": "µM"},
      {"measurement": "total cell number", "setting": "[1]; 48 h, HSR-GBM1a and subclones", "result": "decreased"},
      {"measurement": "tumor growth in vitro", "setting": "[1]; GBM neurospheres, 2 μM", "result": "inhibits tumor growth in vitro"},
      {"measurement": "growth in the number of live cells", "setting": "DAOY [2]", "result": "reduced as compared to vehicle treated controls"},
      {"measurement": "growth in the number of live cells", "setting": "D283Med [3]", "result": "reduced as compared to vehicle treated controls"},
      {"measurement": "growth in the number of live cells", "setting": "D425Med [4]", "result": "reduced as compared to vehicle treated controls"},
      {"measurement": "growth in the number of live cells", "setting": "PFSK", "result": "reduced as compared to vehicle treated controls"},
      {"measurement": "nestin-positive fraction", "setting": "MB2", "result": "significant reduction"},
      {"measurement": "xenograft formation from pretreated cells", "setting": "DAOY [5]; 2 μM, 48 hours pretreatment, 500,000 viable cells injected subcutaneously", "result": "only one very small lesion formed among the four sites"},
      {"measurement": "tumor formation from pretreated cells after recovery", "setting": "DAOY [5]; two days of treatment, 24 hours recovery in 10% FBS without inhibitor", "result": "unable to form tumors"},
      {"measurement": "remaining cells negative for Hoechst dye (side population)", "setting": "DAOY [6]", "result": 0.01, "unit": "%"},
      {"measurement": "side population", "setting": "D283Med [7]", "result": "ablated"},
      {"measurement": "side population under NICD2 expression", "setting": "DAOY:NICD2", "result": "protected the SP from GSI-18 exposure"},
      {"measurement": "side population", "setting": "D425Med [8]", "result": "ablated"}
    ]}
  ]
}
